Common to all, as to test: ≥ marks a high value that may be exact or a test limit, other limits are often not marked, values filed in µg/mL are converted to µM
The subject of assay [1] is Bacillus subtilis ATCC 23857.
Assay [2] concerns Pseudomonas aeruginosa ATCC 27853.
The subject of assay [3] is Staphylococcus aureus ATCC 25923.
Assay [4] deals with Escherichia coli ATCC 25922.
Assay [5] concerns Candida albicans ATCC 64550.
The test system of assay [6] is Pseudomonas aeruginosa PAO1.
Assay [7] relates to Enterococcus faecalis 981.
Assay [8] concerns Nocardia asteroides 201118.
Assay [9] relates to Psychrobacter faecalis X29.
Another assay deals with Candida glabrata 090902.
Assay [10] relates to Staphylococcus aureus ATCC 33591.
Assay [11] has as its system Staphylococcus aureus ATCC 29213.
For assay [12], the system named is Staphylococcus aureus ATCC 700699.
The test system of assay [13] is Klebsiella pneumoniae ATCC 700603.
The test system of assay [14] is Bacillus cereus ATCC 11778.
For assay [15], the system named is Escherichia coli ATCC 35218.
Assay [16] concerns Pseudomonas aeruginosa ATCC 9027.
Assay [17] concerns Staphylococcus aureus Newman.
The test system of assay [18] is Staphylococcus aureus NCTC 8325-4.
The subject of assay [19] is Staphylococcus aureus SA113.
Assay [20] deals with Cronobacter muytjensii ATCC 51329.
The test system of assay [21] is Cronobacter sakazakii ATCC BAA-894.
In assay [22] the test system is Staphylococcus aureus RF122.
The subject of assay [23] is Staphylococcus aureus RN4220.
In assay [24] the test system is Salmonella enterica subsp. enterica serovar Typhimurium LT2.
The subject of assay [25] is Escherichia coli NCIMB 11843.
The test system of assay [26] is Pseudomonas fluorescens NCIMB 9046.
Assay [27] has as its system Klebsiella pneumoniae NCIMB 13218.
In assay [28] the test system is Cronobacter sakazakii DPC 6440.
The subject of assay [29] is Cronobacter sakazakii DSM 4485.

Data on 8 molecules can be found in DBAASP.

Values after ≈ are worked out from the molar mass of the structure shown. Where only a bound is given, the exact number is not on record here.

What is called MIC is the lowest concentration found to suppress growth.

Consider `CC(C)C[C@H](NC(=O)[C@H](CC(C)C)NC(=O)[C@H](CCCCN)NC(=O)[C@H](CCCCN)NC(=O)[C@H](Cc1c[nH]c2ccccc12)NC(=O)[C@H](Cc1c[nH]c2ccccc12)NC(=O)[C@H](CCCCN)NC(=O)[C@H](CC(C)C)NC(=O)[C@H](CC(C)C)NC(=O)[C@@H](N)CCCCN)C(N)=O` [KLLKWWKKLL], for which the MIC in assay [1] is 8 µM (≈ 10.8 µg/mL); in assay [2], 8 µM (≈ 10.8 µg/mL); in [3], 16 µM (≈ 21.7 µg/mL); in assay [4], 16 µM (≈ 21.7 µg/mL); in [5], 12.5 µM (≈ 16.9 µg/mL).
In the case of `CC[C@H](C)[C@H](NC(=O)[C@H](CCCN=C(N)N)NC(=O)[C@H](CC(C)C)NC(=O)[C@H](CCCN=C(N)N)NC(=O)[C@@H](N)C(C)C)C(=O)N[C@@H](CCCN=C(N)N)C(=O)N[C@H](C(=O)N[C@@H](C)C(N)=O)C(C)C` [VRLRIRVA], the minimum inhibitory concentration (MIC) came to 10.2 µM (≈ 9.99 µg/mL) in assay [6] and 25 µM (≈ 24.5 µg/mL) in assay [5].
Turning to `CC[C@H](C)[C@@H]1NC(=O)[C@H](CCC(=O)O)NC(=O)[C@@H](NC(=O)[C@@H](NC(=O)[C@@H](NC(=O)[C@H](CCCCN)NC(=O)[C@@H]2CCCN2C(=O)[C@H](CC(C)C)NC(=O)[C@H](Cc2ccccc2)NC(=O)[C@H](CC(C)C)NC(=O)[C@@H]2CCCN2C(=O)[C@H](CC(C)C)NC(=O)[C@@H](N)Cc2ccccc2)[C@@H](C)CC)[C@@H](C)CC)CSSC[C@@H](C(=O)O)NC(=O)[C@H](CCCCN)NC(=O)[C@H](CCCCN)NC(=O)[C@H]([C@@H](C)O)NC1=O` [FLPLFLPKIICEITKKC], the MIC in assay [7] was at least 50 µM; in [8], 25 µM (≈ 50.1 µg/mL); in assay [9], at least 50 µM; in the assay with Candida glabrata 090902, 25 µM (≈ 50.1 µg/mL); in assay [3] it was 100 µM (≈ 200 µg/mL).
Consider `CC[C@H](C)[C@H](NC(=O)[C@H](CC(=O)O)NC(=O)[C@H](CCCCN)NC(=O)[C@H](C)NC(=O)[C@H](C)NC(=O)CNC(=O)[C@H](CCCCN)NC(=O)[C@H](CC(C)C)NC(=O)[C@@H](NC(=O)[C@H](CC(=O)O)NC(=O)[C@H](C)NC(=O)[C@@H](NC(=O)CN)C(C)C)[C@@H](C)CC)C(=O)N[C@@H](C)C(=O)NCC(=O)N[C@@H](Cc1cnc[nH]1)C(=O)N[C@@H](CC(C)C)C(=O)N[C@@H](C)C(=O)N[C@@H](CO)C(=O)N[C@@H](CCCCN)C(=O)N[C@H](C(=O)N[C@@H](CCSC)C(=O)N[C@@H](CC(N)=O)C(=O)N[C@@H](CCCCN)C(=O)N[C@@H](CC(C)C)C(N)=O)C(C)C` [GVADILKGAAKDIAGHLASKVMNKL], for which the MIC in assay [10] was at least 100 µM; in assay [11] it was over 100 µM; in assay [12] it was at least 100 µM; in assay [2], over 100 µM; in assay [4] it was over 100 µM; in assay [13], 100 µM (≈ 252 µg/mL).
On to `CC(C)C[C@H](NC(=O)[C@@H](NC(=O)[C@@H](N)CCCCN)C(C)C)C(=O)N[C@@H](CCCCN)C(=O)N[C@@H](C)C(=O)N[C@@H](C)C(=O)N[C@@H](C)C(N)=O` [KVLKAAA], for which the minimum inhibitory concentration (MIC) in [14] was at least 50 µM; in assay [15], at least 50 µM; in assay [16], over 50 µM; in assay [3] it was over 50 µM.
For `CC[C@H](C)[C@H](N)C(=O)N[C@@H](CCCCN)C(=O)N[C@@H](CCC(N)=O)C(=O)NCC(=O)N[C@@H](CC(C)C)C(=O)N1CCC[C@H]1C(=O)N[C@@H](CCC(N)=O)C(=O)N[C@@H](CCC(=O)O)C(=O)O` [IKQGLPQE], the MIC in assay [17], in assay [18], in assay [19], in [20], in [21] and in [22] was at least 2500 µM throughout. Besides, the MIC in assay [23], in assay [24], in assay [25], in [26], in assay [27] and in assay [28] was at least 2500 µM in each case. In assay [29], this molecule came in with an MIC of at least 2500 µM.
For the molecule `CC(C)C[C@H](NC(=O)[C@H](CC(N)=O)NC(=O)[C@H](CCC(=O)O)NC(=O)[C@H](CC(N)=O)NC(=O)[C@H](CC(C)C)NC(=O)[C@@H](N)C(C)C)C(=O)N[C@@H](C)C(=O)N[C@@H](C)C(=O)O` [VLNENLAA], the MIC in assay [17] was at least 1250 µM; in assay [18], at least 2500 µM; in [19], at least 1250 µM; in [20] it was at least 2500 µM; in [21] it was at least 1250 µM; in assay [22] it was at least 156 µM. For the same molecule, the minimal inhibitory concentration (MIC) in assay [23] was at least 312 µM; in assay [24], at least 2500 µM; in assay [25] it was at least 2500 µM; in assay [26], at least 2500 µM; in assay [27], at least 2500 µM; in assay [28] it was at least 1250 µM. For the same molecule, the minimal inhibitory concentration (MIC) in assay [2] was 64 µM (≈ 53.9 µg/mL); in assay [29], at least 312 µM.
With `CC[C@H](C)[C@H](NC(=O)[C@H](CC(=O)O)NC(=O)[C@H](CCCCN)NC(=O)[C@H](C)NC(=O)[C@H](C)NC(=O)CNC(=O)[C@H](CCCCN)NC(=O)[C@H](CC(C)C)NC(=O)[C@@H](NC(=O)[C@H](CC(=O)O)NC(=O)[C@@H](NC(=O)[C@@H](NC(=O)CN)C(C)C)C(C)C)[C@@H](C)CC)C(=O)N[C@@H](C)C(=O)NCC(=O)N[C@@H](C)C(=O)N[C@@H](CC(C)C)C(=O)N[C@@H](C)C(=O)N[C@@H](CO)C(=O)N[C@@H](CCCCN)C(=O)N[C@H](C(=O)N[C@@H](CCSC)C(=O)N[C@@H](CC(N)=O)C(=O)N[C@@H](CCCCN)C(=O)N[C@@H](CC(C)C)C(N)=O)C(C)C` [GVVDILKGAAKDIAGALASKVMNKL], the MIC in assay [10] is at least 100 µM; in assay [11], over 100 µM; in [12], at least 100 µM; in assay [2], over 100 µM; in [4] it was 100 µM (≈ 248 µg/mL); in assay [13] it was 100 µM (≈ 248 µg/mL).
